Laboratory results as given in ChEMBL document CHEMBL3991601, “The target landscape of clinical kinase drugs” (Science, 2017).
Active and inactive are the calls of the source.

Key:
[1] = molecular target: T1, cGMP-dependent protein kinase 1 (Homo sapiens, UniProt Q13976)
T1 sequence (Q13976 whole entry): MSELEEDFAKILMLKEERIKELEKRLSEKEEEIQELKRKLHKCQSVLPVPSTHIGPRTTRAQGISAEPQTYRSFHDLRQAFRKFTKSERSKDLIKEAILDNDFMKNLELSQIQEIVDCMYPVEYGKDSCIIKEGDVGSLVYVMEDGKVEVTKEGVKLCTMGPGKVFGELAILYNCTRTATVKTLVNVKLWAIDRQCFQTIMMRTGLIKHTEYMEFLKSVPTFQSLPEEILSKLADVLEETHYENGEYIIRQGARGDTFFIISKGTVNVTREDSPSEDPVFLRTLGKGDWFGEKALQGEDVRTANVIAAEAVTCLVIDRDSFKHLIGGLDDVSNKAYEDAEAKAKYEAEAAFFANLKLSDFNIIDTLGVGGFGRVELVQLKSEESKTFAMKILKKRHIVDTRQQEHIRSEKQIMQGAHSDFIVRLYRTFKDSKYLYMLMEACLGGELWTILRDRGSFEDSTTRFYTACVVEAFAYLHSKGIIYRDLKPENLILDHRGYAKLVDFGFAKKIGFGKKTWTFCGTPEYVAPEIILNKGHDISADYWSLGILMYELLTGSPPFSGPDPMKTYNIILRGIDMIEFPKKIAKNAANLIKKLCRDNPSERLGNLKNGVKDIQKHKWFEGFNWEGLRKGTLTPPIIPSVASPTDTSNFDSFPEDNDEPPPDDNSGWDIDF

[2] = molecular target: T2, Structural maintenance of chromosomes protein 1A (Homo sapiens, UniProt Q14683)
T2 sequence (Q14683 whole entry): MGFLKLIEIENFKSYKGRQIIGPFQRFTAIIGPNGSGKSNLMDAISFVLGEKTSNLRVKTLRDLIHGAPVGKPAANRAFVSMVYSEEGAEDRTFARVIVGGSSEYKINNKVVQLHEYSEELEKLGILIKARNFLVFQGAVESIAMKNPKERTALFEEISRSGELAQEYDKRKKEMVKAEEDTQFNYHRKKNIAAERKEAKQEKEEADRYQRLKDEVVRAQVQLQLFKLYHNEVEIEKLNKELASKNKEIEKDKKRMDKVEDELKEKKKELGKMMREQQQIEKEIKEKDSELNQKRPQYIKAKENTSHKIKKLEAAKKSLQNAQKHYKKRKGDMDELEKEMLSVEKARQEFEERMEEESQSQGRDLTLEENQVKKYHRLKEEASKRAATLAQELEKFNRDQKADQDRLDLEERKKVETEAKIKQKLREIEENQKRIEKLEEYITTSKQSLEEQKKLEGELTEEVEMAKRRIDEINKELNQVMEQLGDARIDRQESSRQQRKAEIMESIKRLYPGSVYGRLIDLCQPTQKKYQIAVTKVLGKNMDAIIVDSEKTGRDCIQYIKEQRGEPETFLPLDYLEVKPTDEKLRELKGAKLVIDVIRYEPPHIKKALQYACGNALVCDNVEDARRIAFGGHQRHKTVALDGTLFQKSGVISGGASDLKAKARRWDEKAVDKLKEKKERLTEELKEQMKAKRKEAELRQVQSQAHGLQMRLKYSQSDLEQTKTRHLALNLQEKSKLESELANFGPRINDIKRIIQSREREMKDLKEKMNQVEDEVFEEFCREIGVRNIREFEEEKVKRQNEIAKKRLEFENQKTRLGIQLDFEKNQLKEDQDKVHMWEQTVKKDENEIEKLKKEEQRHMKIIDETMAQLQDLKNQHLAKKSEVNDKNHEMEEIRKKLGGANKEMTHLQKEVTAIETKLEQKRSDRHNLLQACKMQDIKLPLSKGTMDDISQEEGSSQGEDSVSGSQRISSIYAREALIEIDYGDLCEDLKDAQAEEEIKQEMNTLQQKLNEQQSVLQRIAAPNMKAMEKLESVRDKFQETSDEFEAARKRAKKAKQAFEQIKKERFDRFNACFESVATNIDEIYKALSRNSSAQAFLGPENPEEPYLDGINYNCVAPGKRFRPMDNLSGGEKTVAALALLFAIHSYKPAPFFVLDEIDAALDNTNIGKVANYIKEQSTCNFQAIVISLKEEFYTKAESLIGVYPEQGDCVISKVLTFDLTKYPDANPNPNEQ

[3] = molecular target: T3, AarF domain-containing protein kinase 1 (Homo sapiens, UniProt Q86TW2)
T3 sequence (Q86TW2 whole entry): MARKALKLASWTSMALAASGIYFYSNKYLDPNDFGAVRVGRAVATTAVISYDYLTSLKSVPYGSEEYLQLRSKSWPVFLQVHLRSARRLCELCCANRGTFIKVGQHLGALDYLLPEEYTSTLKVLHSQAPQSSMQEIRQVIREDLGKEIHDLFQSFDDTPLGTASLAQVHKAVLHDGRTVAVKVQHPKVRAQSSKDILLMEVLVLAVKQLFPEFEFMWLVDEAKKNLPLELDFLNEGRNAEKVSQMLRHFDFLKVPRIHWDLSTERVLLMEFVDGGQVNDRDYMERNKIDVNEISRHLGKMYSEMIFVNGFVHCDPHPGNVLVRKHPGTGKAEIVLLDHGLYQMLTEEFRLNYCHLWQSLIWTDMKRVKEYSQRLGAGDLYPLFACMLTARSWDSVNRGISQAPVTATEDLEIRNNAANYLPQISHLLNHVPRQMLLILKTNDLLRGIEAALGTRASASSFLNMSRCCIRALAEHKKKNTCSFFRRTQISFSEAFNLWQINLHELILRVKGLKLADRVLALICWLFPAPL

Pyridoxal kinase = molecular target: T4, Pyridoxal kinase (Homo sapiens, UniProt O00764)
T4 sequence (O00764 whole entry): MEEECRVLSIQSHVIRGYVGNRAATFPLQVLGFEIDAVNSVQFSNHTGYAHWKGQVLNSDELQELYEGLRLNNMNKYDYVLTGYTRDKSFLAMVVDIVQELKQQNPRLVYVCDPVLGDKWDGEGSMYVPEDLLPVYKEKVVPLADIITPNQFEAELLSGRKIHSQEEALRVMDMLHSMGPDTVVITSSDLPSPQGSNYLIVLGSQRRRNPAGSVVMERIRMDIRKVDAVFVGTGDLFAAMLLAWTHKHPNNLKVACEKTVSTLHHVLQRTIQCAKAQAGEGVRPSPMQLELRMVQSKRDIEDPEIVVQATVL

GTP-binding protein 4 = GTP-binding protein 4 (Homo sapiens, UniProt Q9BZE4)
[4] = molecular target: Chromodomain-helicase-DNA-binding protein 4 (Homo sapiens, UniProt Q14839)
Sequence of Chromodomain-helicase-DNA-binding protein 4 (Q14839 whole entry): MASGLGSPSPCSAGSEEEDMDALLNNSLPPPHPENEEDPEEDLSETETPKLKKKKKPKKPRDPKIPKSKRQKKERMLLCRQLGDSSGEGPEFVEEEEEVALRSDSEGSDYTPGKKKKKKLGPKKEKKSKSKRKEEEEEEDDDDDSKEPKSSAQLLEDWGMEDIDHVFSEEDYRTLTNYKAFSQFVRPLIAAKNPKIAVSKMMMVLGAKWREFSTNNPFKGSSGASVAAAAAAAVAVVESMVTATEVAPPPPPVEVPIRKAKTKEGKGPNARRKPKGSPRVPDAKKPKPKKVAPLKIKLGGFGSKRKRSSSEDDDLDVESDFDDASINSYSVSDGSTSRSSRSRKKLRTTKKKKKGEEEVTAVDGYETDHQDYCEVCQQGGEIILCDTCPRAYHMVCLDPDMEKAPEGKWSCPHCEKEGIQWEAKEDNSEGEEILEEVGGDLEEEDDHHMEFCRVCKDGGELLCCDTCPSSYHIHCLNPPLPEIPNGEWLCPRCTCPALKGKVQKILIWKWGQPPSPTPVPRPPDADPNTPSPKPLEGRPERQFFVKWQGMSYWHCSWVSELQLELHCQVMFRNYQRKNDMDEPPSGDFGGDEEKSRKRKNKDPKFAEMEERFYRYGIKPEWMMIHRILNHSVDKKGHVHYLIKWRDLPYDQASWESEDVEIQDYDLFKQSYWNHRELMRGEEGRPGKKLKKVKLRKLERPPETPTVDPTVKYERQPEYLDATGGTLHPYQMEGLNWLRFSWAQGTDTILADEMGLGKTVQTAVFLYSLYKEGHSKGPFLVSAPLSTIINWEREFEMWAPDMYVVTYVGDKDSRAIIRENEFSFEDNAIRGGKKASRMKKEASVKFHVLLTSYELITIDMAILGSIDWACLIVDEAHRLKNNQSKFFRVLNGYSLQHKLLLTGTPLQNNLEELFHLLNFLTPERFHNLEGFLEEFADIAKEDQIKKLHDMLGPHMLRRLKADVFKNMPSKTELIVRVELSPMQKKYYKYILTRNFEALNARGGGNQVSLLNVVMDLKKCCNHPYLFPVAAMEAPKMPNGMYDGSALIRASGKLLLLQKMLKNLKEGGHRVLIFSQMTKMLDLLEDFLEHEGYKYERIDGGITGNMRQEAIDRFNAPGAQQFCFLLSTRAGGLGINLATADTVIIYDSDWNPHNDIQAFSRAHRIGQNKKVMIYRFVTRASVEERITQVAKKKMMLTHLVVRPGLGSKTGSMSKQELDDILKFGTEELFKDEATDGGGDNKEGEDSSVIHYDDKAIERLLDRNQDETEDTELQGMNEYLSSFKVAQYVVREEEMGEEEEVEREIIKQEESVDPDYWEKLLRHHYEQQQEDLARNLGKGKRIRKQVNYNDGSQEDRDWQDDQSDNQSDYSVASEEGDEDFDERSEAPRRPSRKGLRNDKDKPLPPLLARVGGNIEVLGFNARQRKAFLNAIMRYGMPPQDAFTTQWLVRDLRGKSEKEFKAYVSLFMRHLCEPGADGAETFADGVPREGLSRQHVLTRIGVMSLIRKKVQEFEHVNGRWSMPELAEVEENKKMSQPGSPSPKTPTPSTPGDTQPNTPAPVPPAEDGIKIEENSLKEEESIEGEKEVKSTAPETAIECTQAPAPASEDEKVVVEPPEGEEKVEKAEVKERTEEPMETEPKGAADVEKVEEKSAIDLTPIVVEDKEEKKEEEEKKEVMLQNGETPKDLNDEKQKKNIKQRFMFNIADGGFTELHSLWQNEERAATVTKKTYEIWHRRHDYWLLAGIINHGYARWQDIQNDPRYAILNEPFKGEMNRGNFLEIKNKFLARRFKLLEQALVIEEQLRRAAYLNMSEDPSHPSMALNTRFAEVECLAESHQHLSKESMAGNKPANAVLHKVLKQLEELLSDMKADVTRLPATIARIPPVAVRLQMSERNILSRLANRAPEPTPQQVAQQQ
Further: in the data inactive means no Kd found up to 30 µM.

Compound | Kd [1] | Kd [2] | Kd [3] | Kd (Pyridoxal kinase) | Kd (GTP-binding protein 4) | Kd [4]
Cc1c(Cn2c(C)nc3c(C(=O)O)cc(N4CCOCC4)cc32)cccc1C(F)(F)F [GSK-2636771] | > 30 µM (inactive) | > 30 µM (inactive) | > 30 µM (inactive) | > 30 µM (inactive) | > 30 µM (inactive) | > 30 µM (inactive)
Cn1cc(-c2[nH]c3cc(NC(=O)[C@H](N)C4CCCCC4)cc4c3c2C=NNC4=O)cn1 | > 30 µM (inactive) | > 30 µM (inactive) | 4.5 µM (active) | > 30 µM (inactive) | > 30 µM (inactive) | > 30 µM (inactive)
S=C(NCc1ccc2c(c1)OCO2)N1CCN(c2ncnc3c2oc2ccccc23)CC1 [AMUVATINIB] | > 30 µM (inactive) | > 30 µM (inactive) | > 30 µM (inactive) | > 30 µM (inactive) | > 30 µM (inactive) | > 30 µM (inactive)
O[C@H]1CC[C@H](Nc2ncc3nc(Nc4c(F)cc(F)cc4F)n([C@H]4CCOC4)c3n2)CC1 [TANZISERTIB] | > 30 µM (inactive) | > 30 µM (inactive) | > 30 µM (inactive) | > 30 µM (inactive) | > 30 µM (inactive) | > 30 µM (inactive)
CCc1nc(C(N)=O)c(Nc2ccc(N3CCC(N4CCN(C)CC4)CC3)c(OC)c2)nc1NC1CCOCC1 [GILTERITINIB] | > 30 µM (inactive) | > 30 µM (inactive) | 0.152 µM (active) | > 30 µM (inactive) | > 30 µM (inactive) | > 30 µM (inactive)
C#Cc1cccc(Nc2ncnc3cc4c(cc23)OCCOCCOCCO4)c1 [ICOTINIB] | > 30 µM (inactive) | > 30 µM (inactive) | > 30 µM (inactive) | > 30 µM (inactive) | > 30 µM (inactive) | > 30 µM (inactive)
COc1cc2ncnc(Nc3ccc(O)cc3)c2cc1OC [WHI-P131] | > 30 µM (inactive) | > 30 µM (inactive) | > 30 µM (inactive) | > 30 µM (inactive) | > 30 µM (inactive) | > 30 µM (inactive)
Cn1c(=O)n(-c2ccc(C(C)(C)C#N)cc2)c2c3cc(-c4cnc5ccccc5c4)ccc3ncc21 [DACTOLISIB] | > 30 µM (inactive) | > 30 µM (inactive) | > 30 µM (inactive) | > 30 µM (inactive) | > 30 µM (inactive) | > 30 µM (inactive)
C=CC(=O)Nc1cc(Nc2nccc(-c3cn(C)c4ccccc34)n2)c(OC)cc1N(C)CCN(C)C [OSIMERTINIB] | > 30 µM (inactive) | > 30 µM (inactive) | > 30 µM (inactive) | > 30 µM (inactive) | > 30 µM (inactive) | > 30 µM (inactive)
FC(F)(F)c1ccc(CNc2ccc(Cc3c[nH]c4ncc(Cl)cc34)cn2)cn1 [PEXIDARTINIB] | > 30 µM (inactive) | > 30 µM (inactive) | > 30 µM (inactive) | > 30 µM (inactive) | > 30 µM (inactive) | > 30 µM (inactive)
COc1ccc2c(OCc3nnc4ccc(-c5ccccc5)nn34)ccnc2c1 [AMG-208] | > 30 µM (inactive) | > 30 µM (inactive) | > 30 µM (inactive) | > 30 µM (inactive) | > 30 µM (inactive) | > 30 µM (inactive)
CCN(CCCOc1ccc2c(Nc3cc(CC(=O)Nc4cccc(F)c4)n[nH]3)ncnc2c1)CCOP(=O)(O)O [BARASERTIB] | > 30 µM (inactive) | > 30 µM (inactive) | > 30 µM (inactive) | > 30 µM (inactive) | > 30 µM (inactive) | > 30 µM (inactive)
CCN1CCN(Cc2ccc(Nc3ncc(F)c(-c4cc(F)c5nc(C)n(C(C)C)c5c4)n3)nc2)CC1 [ABEMACICLIB] | > 30 µM (inactive) | > 30 µM (inactive) | 0.04 µM (active) | > 30 µM (inactive) | > 30 µM (inactive) | > 30 µM (inactive)
COc1cccc2cc(-c3nc([C@H]4CC[C@H](C(=O)O)CC4)n4ncnc(N)c34)[nH]c12 [OSI-027] | > 30 µM (inactive) | > 30 µM (inactive) | > 30 µM (inactive) | > 30 µM (inactive) | > 30 µM (inactive) | > 30 µM (inactive)
O=C(NC[C@H](O)CO)c1ccncc1Nc1ccc(I)cc1F [PIMASERTIB] | > 30 µM (inactive) | > 30 µM (inactive) | > 30 µM (inactive) | > 30 µM (inactive) | > 30 µM (inactive) | > 30 µM (inactive)
CN1CCN(c2nc(C3=C(c4c[nH]c5ccccc45)C(=O)NC3=O)c3ccccc3n2)CC1 [SOTRASTAURIN] | > 30 µM (inactive) | > 30 µM (inactive) | > 30 µM (inactive) | > 30 µM (inactive) | 8.2 µM | > 30 µM (inactive)
COc1ccc(-c2ccc3ncc4c(c3c2)n(-c2ccc(N3CCNCC3)c(C(F)(F)F)c2)c(=O)n4C)cn1 [BGT-226 FREE BASE] | > 30 µM (inactive) | > 30 µM (inactive) | > 30 µM (inactive) | > 30 µM (inactive) | > 30 µM (inactive) | > 30 µM (inactive)
O=S(=O)(c1cccc2c(O)nccc12)N1CCCNCC1 [HYDROXYFASUDIL] | > 30 µM (inactive) | > 30 µM (inactive) | > 30 µM (inactive) | > 30 µM (inactive) | > 30 µM (inactive) | > 30 µM (inactive)
